Measurements: PubChem BioAssay AID2060893 (Molecular Pharmacology Branch, DTP, NCI, 2025)
pIC50: −log10 of the molar value.

Test system: K86415-001-R-J1-PDC complex spheroids, viability
Experiment: Anticancer human tumor K86415-001-R-J1-PDC patient-derived lung adenocarcinoma cell line growth inhibition [RAS]
Conditions: for viability, T/C: stronger effect = lower value
From the text: RAS pathway inhibitors in Combinations in Complex Spheroids
A high-throughput screen of multi-cell type tumor spheroids was designed to identify active combinations of RAS pathway inhibitors and targeted small molecules. Complex spheroids include a stromal component modeled by human endothelial cells (HUVEC) and fibroblasts modeled by human mesenchymal stem cells (MSCs). The concentration ranges selected for each drug and investigational agent were based upon clinically achievable concentrations if the clinical Cmax of the agent was known.
Compounds. The drugs and investigational agents: abemaciclib (NSC768073), cobimetinib (NSC768068), divarasib (GDC6063, NSC841802), docetaxel (NSC628503), GDC-1971 (RLY-1971, NSC841576), gemcitabine (NSC613327), inavolisib (NSC800729), ipatasertib (NSC767898), KB-0742 (NSC834161), MRTX-1133 (NSC836407), osimertinib (NSC779217), RMC-4630 (NSC839698), RMC-6236 (NSC851965), RMC-6291 (NSC852671), Ro-3306 (NSC812927), sapanisertib (NSC764658), SN-38 (NSC673596), staurosporine (NSC755774), SY5609 (NSC837396), and tovorafenib (DAY101, NSC766906), were obtained from the National Cancer Institute (NCI) Developmental Therapeutics Program Chemical Repository. The FDA-approved anticancer drug set is available from the NCI Developmental Therapeutics Program. […] The stock solutions were prepared in dimethyl sulfoxide (DMSO, Sigma-Aldrich, St. Louis, MO, cat. D2650) at 800-fold the tested concentration and stored at -70 degrees C prior to their use. All drugs and investigational agents were tested over a range starting from a high concentration at or near the clinical Cmax and decreasing in half-log increments. If the clinical Cmax for an agent had not been determined, the highest concentration tested was 10 microM.
Cell Culture. All cells were maintained in an incubator at 37 degrees C and 5% CO2 with 95% humidity. The PDC lines were cultured according to standard operating procedures established by the NCI PDMR. All PDCs were thawed and cultured in Matrigel-coated flasks prepared with a working solution of 1X Ham's F-12 nutrient mix, without supplementation (Invitrogen, Waltham, MA, cat. 11765054), 100 U/mL penicillin-streptomycin (Invitrogen, cat. 15140122), and 2.5% Matrigel (Corning Inc., Corning, NY, cat. 354248) for the first three passages. The 362531-283-R-J2-PDC and 782815-120-R-J1-PDC lines were cultured in 6C/Colon 1B media, which includes advanced DMEM/F-12 (Thermo Fisher Scientific, cat. 12634028), 10 mM HEPES (Thermo Fisher Scientific, cat. 15630080), 1X GlutaMAX supplement (Thermo Fisher Scientific, cat. 35050061), 0.1 mg/mL primocin (InvivoGen, San Diego, CA, cat. ant-pm-2), 10% defined fetal bovine serum, heat inactivated (HyClone Laboratories Inc., Logan, UT, cat. SH30070.03HI), 50% L-WRN conditioned media (ATCC, cat. CRL-3276), 1.25 mM N-Acetyl-L-cysteine (Sigma-Aldrich, cat. A9165), 10 mM nicotinamide (Sigma-Aldrich, cat. N0636), 1X B-27 supplement (Thermo Fisher Scientific, cat. 17504044), 1X N-2 supplement (Thermo Fisher Scientific, cat. 17502048), 50 ng/mL human EGF (Thermo Fisher Scientific, cat. PHG0311), and 10 microM Y-27632 dihydrochloride (Tocris Bioscience, cat. 1254). The K12877-001-R-J1-PDC line was cultured in 6I media, which includes all 6C/Colon 1B media plus 10 ng/mL human FGF-10 (PeproTech, cat. 100-26), 1 ng/mL human FGF-2 (PeproTech, cat. 100-18B), 1 µM prostaglandin E2 (Tocris Bioscience, cat. 2296), […] hydrocortisone (Sigma-Aldrich, cat. H4001), and […] bovine insulin (Sigma-Aldrich, cat. I6634). The K86415-001-R-J1-PDC line was cultured in 6D media, which includes all 6C/Colon 1B media components minus the L-WRN conditioned media. The 485176-168-R4-J1-PDC was cultured in PANC media, which includes all 6C/Colon 1B media plus 100 ng/mL human FGF-10 (PeproTech, cat. 100-26), 500 nM SB-431542 (Selleckchem, cat. S1067), and 10 nM gastrin (Tocris Bioscience, cat. 3006). […]

[1] = curve of first compound, second compound 0.0316 µM
[2] = curve of first compound, second compound 0.1 µM
[3] = curve of first compound, second compound 0.316 µM
[4] = curve of first compound, second compound 1 µM
[5] = second compound 0.0316 µM, first compound 0.0316 µM
[6] = second compound 0.0316 µM, first compound 0.1 µM
[7] = second compound 0.0316 µM, first compound 0.316 µM
[8] = second compound 0.0316 µM, first compound 1 µM
[9] = second compound 0.0316 µM, first compound 3.16 µM
[10] = second compound 0.0316 µM, first compound 10 µM
[11] = second compound 0.1 µM, first compound 0.0316 µM
[12] = second compound 0.1 µM, first compound 0.1 µM
[13] = second compound 0.1 µM, first compound 0.316 µM
[14] = second compound 0.1 µM, first compound 1 µM
[15] = second compound 0.1 µM, first compound 3.16 µM
[16] = second compound 0.1 µM, first compound 10 µM
[17] = second compound 0.316 µM, first compound 0.0316 µM
[18] = second compound 0.316 µM, first compound 0.1 µM
[19] = second compound 0.316 µM, first compound 0.316 µM
[20] = second compound 0.316 µM, first compound 1 µM
[21] = second compound 0.316 µM, first compound 3.16 µM
[22] = second compound 0.316 µM, first compound 10 µM
[23] = second compound 1 µM, first compound 0.0316 µM
[24] = second compound 1 µM, first compound 0.1 µM
[25] = second compound 1 µM, first compound 0.316 µM
[26] = second compound 1 µM, first compound 1 µM
[27] = second compound 1 µM, first compound 3.16 µM
[28] = second compound 1 µM, first compound 10 µM
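Also: spheroids exposed to agents for seven days before readout.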

For `C=CC(=O)N1CCN(c2nc(OCC3CCCN3C)nc3c(F)c(-c4nc(N)cc(C)c4C(F)(F)F)c(Cl)cc23)C(C)C1` (configuration not stated), the viability, T/C (compound 0.00316 µM) was 18.3% [middle of 12 runs], the viability, T/C (compound 0.01 µM) was 13.4% [middle of 12 runs] and the viability, T/C (compound 0.0316 µM) was 11.5% [middle of 12 runs]. The viability, T/C (compound 0.1 µM) was 9.89% [middle of 12 runs], the viability, T/C (compound 0.316 µM) was 10.8% [middle of 12 runs] and the viability, T/C (compound 1 µM) was 10.7% [middle of 11 runs]. It also gave a pIC50 (compound alone, run of 07/15/2024) of over 8.50 and a pIC50 (curve of compound) of over 8.50.

`NC1c2ccccc2OC12CCN(c1cnc3c(N4CCCc5ncccc54)n[nH]c3n1)CC2` (configuration not stated) + C=CC(=O)N1CCN(c2nc(OCC3CCCN3C)nc3c(F)c(-c4nc(N)cc(C)c4C(F)(F)F)c(Cl)cc23)C(C)C1 showed a pIC50 (curve of first compound, second compound 0.00316 µM) of over 7.50, a pIC50 (curve of first compound, second compound 0.01 µM) of over 7.50 and a pIC50 [1] of over 7.50. The pIC50 [2] was over 7.50, the pIC50 [3] was over 7.50 and the pIC50 [4] was over 7.50. For the same compound, the viability, T/C (second compound 0.00316 µM, first compound 0.0316 µM) was 7.58%, the viability, T/C (second compound 0.00316 µM, first compound 0.1 µM) was 6.46% and the viability, T/C (second compound 0.00316 µM, first compound 0.316 µM) was 4.66%. For the same compound, the viability, T/C (second compound 0.00316 µM, first compound 1 µM) was 5.77%, the viability, T/C (second compound 0.00316 µM, first compound 3.16 µM) was 4.88% and the viability, T/C (second compound 0.00316 µM, first compound 10 µM) was 5.36%. For the same compound, the viability, T/C (second compound 0.01 µM, first compound 0.0316 µM) was 7.19%, the viability, T/C (second compound 0.01 µM, first compound 0.1 µM) was 5.33% and the viability, T/C (second compound 0.01 µM, first compound 0.316 µM) was 4.69%. It also gave a viability, T/C (second compound 0.01 µM, first compound 1 µM) of 4.12%, a viability, T/C (second compound 0.01 µM, first compound 3.16 µM) of 4.26% and a viability, T/C (second compound 0.01 µM, first compound 10 µM) of 4.5%. It also gave a viability, T/C [5] of 6.59%, a viability, T/C [6] of 6.76% and a viability, T/C [7] of 4.64%. The viability, T/C [8] was 4.27%, the viability, T/C [9] was 4.76% and the viability, T/C [10] was 5.5%. The viability, T/C [11] was 5.65%, the viability, T/C [12] was 6.03% and the viability, T/C [13] was 4.11%. For the same compound, the viability, T/C [14] was 3.86%, the viability, T/C [15] was 4.33% and the viability, T/C [16] was 4.71%. For the same compound, the viability, T/C [17] was 6.32%, the viability, T/C [18] was 6.11% and the viability, T/C [19] was 4.53%. The viability, T/C [20] was 4.12%, the viability, T/C [21] was 6.47% and the viability, T/C [22] was 5.1%. It also gave a viability, T/C [23] of 5.95%, a viability, T/C [24] of 6.16% and a viability, T/C [25] of 5%. It also gave a viability, T/C [26] of 4.63%, a viability, T/C [27] of 5.74% and a viability, T/C [28] of 5.91%.

`NC1c2ccccc2OC12CCN(c1cnc3c(N4CCCc5ncccc54)n[nH]c3n1)CC2` (configuration not stated) + C#Cc1c(F)ccc2cc(O)cc(-c3ncc4c(N5CC6CCC(C5)N6)nc(OCC56CCCN5CC(F)C6)nc4c3F)c12 showed a pIC50 [1] of over 7.50, a pIC50 [2] of over 7.50 and a pIC50 [3] of over 7.50. The pIC50 [4] was over 7.50, the pIC50 (curve of first compound, second compound 3.16 µM) was over 7.50 and the pIC50 (curve of first compound, second compound 10 µM) was over 7.50. It also gave a viability, T/C [5] of 34.9%, a viability, T/C [6] of 25.9% and a viability, T/C [7] of 18.1%. For the same compound, the viability, T/C [8] was 14.8%, the viability, T/C [9] was 17.4% and the viability, T/C [10] was 15.8%. For the same compound, the viability, T/C [11] was 36.4%, the viability, T/C [12] was 23.2% and the viability, T/C [13] was 16.8%. It also gave a viability, T/C [14] of 13.9%, a viability, T/C [15] of 12.5% and a viability, T/C [16] of 12.4%. The viability, T/C [17] was 28.2%, the viability, T/C [18] was 18.1% and the viability, T/C [19] was 11.8%. The viability, T/C [20] was 8.85%, the viability, T/C [21] was 10.4% and the viability, T/C [22] was 8.35%. The viability, T/C [23] was 17.7%, the viability, T/C [24] was 11.2% and the viability, T/C [25] was 8.78%. The viability, T/C [26] was 7.65%, the viability, T/C [27] was 5.83% and the viability, T/C [28] was 5.6%. It also gave a viability, T/C (second compound 3.16 µM, first compound 0.0316 µM) of 9.96%, a viability, T/C (second compound 3.16 µM, first compound 0.1 µM) of 7.32% and a viability, T/C (second compound 3.16 µM, first compound 0.316 µM) of 5.29%. It also gave a viability, T/C (second compound 3.16 µM, first compound 1 µM) of 4.36%, a viability, T/C (second compound 3.16 µM, first compound 3.16 µM) of 4.13% and a viability, T/C (second compound 3.16 µM, first compound 10 µM) of 5.5%. The viability, T/C (second compound 10 µM, first compound 0.0316 µM) was 7.06%, the viability, T/C (second compound 10 µM, first compound 0.1 µM) was 4.42% and the viability, T/C (second compound 10 µM, first compound 0.316 µM) was 3.79%. For the same compound, the viability, T/C (second compound 10 µM, first compound 1 µM) was 3.47%, the viability, T/C (second compound 10 µM, first compound 3.16 µM) was 4% and the viability, T/C (second compound 10 µM, first compound 10 µM) was 4.4%.
